target: IRE1a (Homo sapiens, UniProt O75460); experiment: In vitro FRET assay (XBP1 RNA probe cleavage by IRE1a); assay type: biochemical; design: purchased SignalChem; settings: SignalChem IRE1a protein 2 nM
Procedure: In vitro FRET assay was performed to evaluate the ability of select compounds to inhibit IRE1, the results of which are summarized in Table 3. To perform the in vitro FRET assay, 1× complete assay buffer (CAB; […] DTT, 50 mM sodium citrate pH 7.15, 1 mM magnesium acetate, 0.02% tween 20) was used to dilute SignalChem IRE1a protein to a final concentration of 2 nM. Selected compounds were serially diluted with DMSO in a non-binding black 384-well plate for a total of 15 ul in each well. 2 ul of the serially diluted compound or DMSO control were then added to new wells containing 98 ul of 1×CAB, for a total volume of 100 ul, 10 ul of which were then transferred to wells of a new plate. 5 ul of the diluted IRE1a was then added to each well. 5 ul of a […] XBP1 RNA probe was then added to each well. Fluorescence was then read over 30 minutes in kinetic mode (485/515 nm).
Two RNA probes were used, XBP1 wildtype (SEQ ID NO: 2) which is able to be spliced by active IRE1a or XBP1 mutant (SEQ ID NO: 3) which is unable to be spliced. Each probe contained a 5′ 6-FAM modification and a 3′ IOWA Black FQ modification.

IRE1a, sequence (O75460 19-977): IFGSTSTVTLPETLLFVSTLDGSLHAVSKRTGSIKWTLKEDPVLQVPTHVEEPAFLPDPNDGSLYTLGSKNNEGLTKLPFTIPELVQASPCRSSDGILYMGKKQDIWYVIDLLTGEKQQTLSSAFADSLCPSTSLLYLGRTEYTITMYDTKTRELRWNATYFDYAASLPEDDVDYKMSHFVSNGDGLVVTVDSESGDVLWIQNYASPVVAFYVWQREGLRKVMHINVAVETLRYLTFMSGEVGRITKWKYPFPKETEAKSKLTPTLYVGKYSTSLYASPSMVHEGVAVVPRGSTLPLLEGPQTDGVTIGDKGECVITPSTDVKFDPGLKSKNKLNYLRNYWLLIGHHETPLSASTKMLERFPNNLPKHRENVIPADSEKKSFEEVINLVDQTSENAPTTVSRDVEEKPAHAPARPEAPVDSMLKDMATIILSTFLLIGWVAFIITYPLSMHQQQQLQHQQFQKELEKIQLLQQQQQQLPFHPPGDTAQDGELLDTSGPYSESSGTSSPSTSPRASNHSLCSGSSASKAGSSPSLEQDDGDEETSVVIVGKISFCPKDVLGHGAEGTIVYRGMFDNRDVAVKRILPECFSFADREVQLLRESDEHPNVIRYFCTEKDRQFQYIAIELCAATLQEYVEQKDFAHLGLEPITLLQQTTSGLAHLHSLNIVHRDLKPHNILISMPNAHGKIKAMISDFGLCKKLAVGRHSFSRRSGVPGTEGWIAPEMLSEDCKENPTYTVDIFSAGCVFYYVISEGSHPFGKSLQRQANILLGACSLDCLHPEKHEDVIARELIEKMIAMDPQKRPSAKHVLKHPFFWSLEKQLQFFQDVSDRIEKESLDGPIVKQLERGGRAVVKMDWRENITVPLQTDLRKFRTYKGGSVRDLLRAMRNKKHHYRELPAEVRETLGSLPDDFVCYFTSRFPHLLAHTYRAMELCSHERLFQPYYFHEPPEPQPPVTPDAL

Compound	IC50 [nM]
CCc1cc(-c2cc(NC(=O)Cc3cccc(C(F)(F)F)c3)nn2C)cc2cnc(N[C@H]3CC[C@H](O)CC3)nc12 [Compound 3, N-(5-(8-ethyl-2-(((1r,4r)-4-hydroxycyclohexyl)amino)quinazolin-6-yl)-1-methyl-1H-pyrazol-3-yl)-2-(3-(trifluoromethyl)phenyl)acetamide]	> 100
CCc1cc(-c2cc(NC(=O)Cc3cc(C(F)(F)F)cc(C(F)(F)F)c3)nn2C)cc2cnc(N[C@H]3CC[C@H](N)CC3)nc12 [Compound 5, N-(5-(2-(((1r,4r)-4-aminocyclohexyl)amino)-8-ethylquinazolin-6-yl)-1-methyl-1H-pyrazol-3-yl)-2-(3,5-bis(trifluoromethyl)phenyl)acetamide]	5 to 50
CCc1cc(-c2cc(NC(=O)[C@@H](O)c3ccccc3)nn2C)cc2cnc(N[C@H]3CC[C@H](N)CC3)nc12 [Compound 15, (S)-N-(5-(2-(((1r,4r)-4-aminocyclohexyl)amino)-8-ethylquinazolin-6-yl)-1-methyl-1H-pyrazol-3-yl)-2-hydroxy-2-phenylacetamide]	5 to 50
CCc1cc(-c2cc(NC(=O)Cc3cccc(C#N)c3)nn2C)cc2cnc(N[C@H]3CC[C@H](N)CC3)nc12 [Compound 17, N-(5-(2-(((1r,4r)-4-aminocyclohexyl)amino)-8-ethylquinazolin-6-yl)-1-methyl-1H-pyrazol-3-yl)-2-(3-cyanophenyl)acetamide]	5 to 50
CCc1cc(-c2cc(NC(=O)Cc3cc(F)cc(C(F)(F)F)c3)nn2C)cc2cnc(N[C@H]3CC[C@H](N)CC3)nc12 [Compound 20, N-(5-(2-(((1r,4r)-4-aminocyclohexyl)amino)-8-ethylquinazolin-6-yl)-1-methyl-1H-pyrazol-3-yl)-2-(3-fluoro-5-(trifluoromethyl)phenyl)acetamide]	5 to 50
CCc1cc(-c2cc(NC(=O)Nc3cc(C(F)(F)F)cc(C(F)(F)F)c3)nn2C)cc2cnc(N[C@H]3CC[C@H](N)CC3)nc12 [Compound 21, 1-(5-(2-(((1r,4r)-4-aminocyclohexyl)amino)-8-ethylquinazolin-6-yl)-1-methyl-1H-pyrazol-3-yl)-3-(3,5-bis(trifluoromethyl)phenyl)urea]	50 to 100
CCc1cc(-c2cc(NC(=O)[C@H](N)c3ccccc3)nn2C)cc2cnc(N[C@H]3CC[C@H](N)CC3)nc12 [Compound 22, (R)-2-amino-N-(5-(2-(((1r,4r)-4-aminocyclohexyl)amino)-8-ethylquinazolin-6-yl)-1-methyl-1H-pyrazol-3-yl)-2-phenylacetamide]	> 100
CCc1cc(-c2cc(CC(=O)Nc3cccc(C(F)(F)F)c3)nn2C)cc2cnc(N[C@H]3CC[C@H](N)CC3)nc12 [Compound 23, 2-(5-(2-(((1r,4r)-4-aminocyclohexyl)amino)-8-ethylquinazolin-6-yl)-1-methyl-1H-pyrazol-3-yl)-N-(3-(trifluoromethyl)phenyl)acetamide]	> 100
CCc1cc(-c2cc(NC(=O)[C@@H](N)c3ccccc3)nn2C)cc2cnc(N[C@H]3CC[C@H](N)CC3)nc12 [Compound 24, (S)-2-amino-N-(5-(2-(((1r,4r)-4-aminocyclohexyl)amino)-8-ethylquinazolin-6-yl)-1-methyl-1H-pyrazol-3-yl)-2-phenylacetamide]	> 100
Cc1c(-c2cc(NC(=O)Cc3cc(C(F)(F)F)ccc3C(F)(F)F)nn2C)ccc2nc(N[C@H]3CC[C@H](N)CC3)ncc12 [Compound 45, N-(5-(2-(((1r,4r)-4-aminocyclohexyl)amino)-5-methylquinazolin-6-yl)-1-methyl-1H-pyrazol-3-yl)-2-(2,5-bis(trifluoromethyl)phenyl)acetamide]	> 100
CCc1cc(-c2cc(NC(=O)Cc3cccc(C(F)(F)F)c3)nn2C)cc2cnc(N[C@H]3CC[C@H](N(C)CCOC)CC3)nc12 [Compound 46, N-(5-(8-ethyl-2-(((1r,4r)-4-((2-methoxyethyl)(methyl)amino)cyclohexyl)amino)quinazolin-6-yl)-1-methyl-1H-pyrazol-3-yl)-2-(3-(trifluoromethyl)phenyl)acetamide]	> 100

Source: patent US10392367B2, “IRE1 small molecule inhibitors” (QUENTIS THERAPEUTICS, INC., priority 2017, dated 2019)
